Test results taken from patent US20160361329A1, “COMPOUNDS FOR TREATMENT OF COMPLEMENT MEDIATED DISORDERS” (Achillion Pharmaceuticals, Inc., priority 2014, published 2016).

Each molecule was assayed against T1, Human factor D (Homo sapiens, UniProt P00746) (assay: Human Factor D Assay). Conditions: Human factor D 80 nM, substrate Z-L-Lys-SBzl and DTNB, pH 7.5.
T1 construct: purified from human serum; purchased Complement Technology, Inc; host or cells: human serum
Assay type: biochemical
Procedure: Other standard factor D inhibition assays are also available.
Human factor D (purified from human serum, Complement Technology, Inc.) at 80 nM final concentration is incubated with test compound at various concentrations for 5 minutes at room temperature in 50 mM Tris, 1M NaCl, pH 7.5. A synthetic substrate Z-L-Lys-SBzl and DTNB (Ellman's reagent) are added to final concentrations of 100 μM each. The increase in color is recorded at OD405 nm in a microplate in kinetic mode over 30 minutes with 30 second time points in a spectrofluorimeter. IC50 values are calculated by non-linear regression from the percentage of inhibition of complement factor D activity as a function of test compound concentration.

T1 sequence (P00746 26-253): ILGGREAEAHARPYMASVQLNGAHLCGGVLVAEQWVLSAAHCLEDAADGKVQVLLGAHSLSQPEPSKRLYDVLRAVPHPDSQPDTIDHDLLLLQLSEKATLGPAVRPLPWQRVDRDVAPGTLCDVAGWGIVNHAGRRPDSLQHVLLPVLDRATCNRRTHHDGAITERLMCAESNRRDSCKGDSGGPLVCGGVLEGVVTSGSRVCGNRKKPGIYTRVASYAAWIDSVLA

IC50 [nM] | Structure (SMILES)
1000 to 10000 | NC(=O)n1cc(NC(=O)N2C[C@H](F)C[C@H]2c2ncc(-c3cccc(Br)n3)[nH]2)c2ccccc21 [Compound 12, 3-((2S,4R)-2-(5-(6-bromopyridin-2-yl)-1H-imidazol-2-yl)-4-fluoropyrrolidine-1-carboxamido)-1H-indole-1-carboxamide]
1000 to 10000 | NC(=O)n1cc(NC(=O)N2C[C@H](F)C[C@H]2c2ncc(-c3cccc(Cl)c3)[nH]2)c2ccccc21 [Compound 10, 3-((2S,4R)-2-(5-(3-chlorophenyl)-1H-imidazol-2-yl)-4-fluoropyrrolidine-1-carboxamido)-1H-indole-1-carboxamide]
1000 to 10000 | NC(=O)n1cc(NC(=O)N2C[C@H](F)C[C@H]2c2nc3cc(Cl)ccc3[nH]2)c2ccccc21 [Compound 14, 3-((2S,4R)-2-(5-chloro-1H-benzo[d]imidazol-2-yl)-4-fluoropyrrolidine-1-carboxamido)-1H-indole-1-carboxamide]
1000 to 10000 | CC(=O)c1ccc(CC(=O)N2C[C@H](F)C[C@H]2C(=O)NCc2cccc(Cl)c2F)c2ccccc12 [Compound 58, (2S,4R)-1-(2-(4-acetylnaphthalen-1-yl)acetyl)-N-(3-chloro-2-fluorobenzyl)-4-fluoropyrrolidine-2-carboxamide]
1000 to 10000 | CC(=NC#N)c1cn(CC(=O)N2C[C@H](F)C[C@H]2C(=O)NCc2cccc(Cl)c2F)c2ccccc12 [Compound 32, (2S,4R)-N-(3-chloro-2-fluorobenzyl)-1-(2-(3-(1-(cyanoimino)ethyl)-1H-indol-1-yl)acetyl)-4-fluoropyrrolidine-2-carboxamide]
1000 to 10000 | NC(=O)n1cc(NC(=O)N2c3ccccc3C[C@H]2C(=O)NCc2cccc(Cl)c2F)c2ccccc21 [Compound 2, (S)-N1-(1-carbamoyl-1H-indol-3-yl)-N2-(3-chloro-2-fluorobenzyl)indoline-1,2-dicarboxamide]
1000 to 10000 | NC(=O)n1cc(NC(=O)[C@@H]2CCC[C@H]2C(=O)NCc2cccc(Cl)c2F)c2ccccc21 [Compound 23, (1R,2R)-N1-(1-carbamoyl-1H-indol-3-yl)-N2-(3-chloro-2-fluorobenzyl)cyclopentane-1,2-dicarboxamide]
1000 to 10000 | CS(=O)(=O)N1CCc2c(n(CC(=O)N3C[C@H](F)C[C@H]3C(=O)NCc3cccc(Cl)c3F)c3ccccc23)C1 [Compound 69, (2S,4R)-N-(3-chloro-2-fluorobenzyl)-4-fluoro-1-(2-(2-(methylsulfonyl)-3,4-dihydro-1H-pyrido[3,4-b]indol-9(2H)-yl)acetyl)pyrrolidine-2-carboxamide]
1000 to 10000 | NC(c1cn(CC(=O)N2C[C@H](F)C[C@H]2C(=O)NCc2cccc(Cl)c2F)c2ccccc12)C(F)(F)F (stereo partly drawn) [Compound 78, (2S,4R)-1-(2-(3-(1-amino-2,2,2-trifluoroethyl)-1H-indol-1-yl)acetyl)-N-(3-chloro-2-fluorobenzyl)-4-fluoropyrrolidine-2-carboxamide]
< 1000 | [2H]C([2H])(NC(=O)[C@@H]1C[C@H]2C[C@H]2N1C(=O)Cn1nc(C(N)=O)c2ccncc21)c1cccc(Cl)c1F [Compound 127, (1R,3S,5R)-2-(2-(3-carbamoyl-1H-pyrazolo[3,4-c]pyridin-1-yl)acetyl)-2-azabicyclo[3.1.0]hexane-3-carboxammide, N-(3-chloro-2-fluorophenylmethyl-d2)]
< 1000 | [2H]C([2H])(NC(=O)[C@@H]1C[C@@H](F)CN1C(=O)Cn1nc(C(N)=O)c2ccncc21)c1cccc(Cl)c1F [Compound 128, (2S,4R)-1-(2-(3-carbamoyl-1H-pyrazolo[3,4-c]pyridin-1-yl)acetyl)-4-fluoropyrrolidine-2-carboxamide, N-(3-chloro-2-fluorophenylmethyl-d2)]
1000 to 10000 | O=C(NCc1cccc(Cl)c1F)[C@@H]1C[C@@H](F)CN1C(=O)CC1=Nc2ccccc2S(=O)(=O)N1 [Compound 49, (2S,4R)-N-(3-chloro-2-fluorobenzyl)-1-(2-(1,1-dioxido-2H-benzo[e][1,2,4]thiadiazin-3-yl)acetyl)-4-fluoropyrrolidine-2-carboxamide]

Structure (SMILES) | IC50 [nM]
CC(=O)c1cn(CC(=O)N2C[C@H](F)C[C@H]2C(=O)NC2CCc3c(Cl)cccc32)c2ccccc12 (stereo partly drawn) [Compound 44, (2S,4R)-1-(2-(3-acetyl-1H-indol-1-yl)acetyl)-N-(4-chloro-2,3-dihydro-1H-inden-1-yl)-4-fluoropyrrolidine-2-carboxamide] | 1000 to 10000
CC(=O)c1cn(CC(=O)N2C[C@H](F)C[C@H]2c2ncc(-c3cccc(Br)n3)[nH]2)c2cc(O)ccc12 [Compound 40, 2-(3-acetyl-6-hydroxy-1H-indol-1-yl)-1-((2S,4R)-2-(5-(6-bromopyridin-2-yl)-1H-imidazol-2-yl)-4-fluoropyrrolidin-1-yl)ethanone] | 1000 to 10000
CC(=O)c1cn(CC(=O)N2[C@@H]3CCCC[C@@H]3C[C@H]2C(=O)NCc2cccc(Cl)c2F)c2cc(O)ccc12 [Compound 66, (2S,3aR,7aR)-1-(2-(3-acetyl-6-hydroxy-1H-indol-1-yl)acetyl)-N-(3-chloro-2-fluorobenzyl)octahydro-1H-indole-2-carboxamide] | 1000 to 10000
CCOP(=O)(OCC)c1nn(CC(=O)N2C[C@H](F)C[C@H]2C(=O)NCc2cccc(Cl)c2F)c2cnccc12 [Compound 53, diethyl 1-(2-((2S,4R)-2-(3-chloro-2-fluorobenzylcarbamoyl)-4-fluoropyrrolidin-1-yl)-2-oxoethyl)-1H-pyrazolo[3,4-c]pyridin-3-ylphosphonate] | 1000 to 10000
CCOP(=O)(OCC)c1cc(Cl)cc(NC(=O)[C@@H]2C[C@@H](F)CN2C(=O)Cn2cc(C(C)=O)c3ccccc32)c1 [Compound 59, diethyl 3-((2S,4R)-1-(2-(3-acetyl-1H-indol-1-yl)acetyl)-4-fluoropyrrolidine-2-carboxamido)-5-chlorophenylphosphonate] | 1000 to 10000
COc1cccc2c1c(C(C)=O)cn2CC(=O)N1C[C@H](F)C[C@H]1C(=O)Nc1cccc(-c2ccccc2Cl)c1F [Compound 96, (2S,4R)-1-(2-(3-acetyl-4-methoxy-1H-indol-1-yl)acetyl)-N-(2′-chloro-2-fluorobiphenyl-3-yl)-4-fluoropyrrolidine-2-carboxamide] | 1000 to 10000
CC(=O)c1cn(CC(=O)N2C[C@H](F)C[C@H]2c2ncc(-c3cccc(Br)n3)[nH]2)c2ccccc12 [Compound 13, 2-(3-acetyl-1H-indol-1-yl)-1-((2S,4R)-2-(5-(6-bromopyridin-2-yl)-1H-imidazol-2-yl)-4-fluoropyrrolidin-1-yl)ethanone] | 1000 to 10000
CCOP(=O)(O)c1nn(CC(=O)N2C[C@H](F)C[C@H]2C(=O)NCc2cccc(Cl)c2F)c2cnccc12 [Compound 60, ethyl hydrogen 1-(2-((2S,4R)-2-(3-chloro-2-fluorobenzylcarbamoyl)-4-fluoropyrrolidin-1-yl)-2-oxoethyl)-1H-pyrazolo[3,4-c]pyridin-3-ylphosphonate] | 1000 to 10000
CC(=O)c1cn(CC(=O)N2C[C@H](F)C[C@H]2C(=O)NC2CCc3ccccc32)c2ccccc12 (some centres unmarked) [Compound 42] | 1000 to 10000
C=C[C@@H]1C[C@]1(NC(=O)[C@@H]1C[C@@H](F)CN1C(=O)Cn1cc(C(C)=O)c2ccc(O)cc21)C(=O)NS(=O)(=O)C1CC1 [Compound 64, (2S,4R)-1-(2-(3-acetyl-6-hydroxy-1H-indol-1-yl)acetyl)-N-((1R,2S)-1-(cyclopropylsulfonyl-carbamoyl)-2-vinylcyclopropyl)-4-fluoropyrrolidine-2-carboxamide] | 1000 to 10000
CC(=O)c1cn(CC(=O)N2CC3(C[C@H]2C(=O)Nc2cccc(OC(F)(F)F)c2F)OCCO3)c2cc(O)ccc12 [Compound 41, (S)-7-(2-(3-acetyl-6-hydroxy-1H-indol-1-yl)acetyl)-N-(2-fluoro-3-(trifluoromethoxy)phenyl)-1,4-dioxa-7-azaspiro[4.4]nonane-8-carboxamide] | 1000 to 10000
